Assay results taken from patent US20050090433A1 (priority 2002, published 2005).
Several values for one entry are separate records, joined by “and”; a condition that tells them apart may be missing. Equal values may be shown once.

How the values were obtained:
[1] = tested on: D-Ala-D-Ala; experiment: ITC of binding to dipeptide; conditions: absence of serum proteins
From the text: (§1) Trans. R. Soc. Lond. Ser. A-Math. Phys. Eng. […] Wiley, (1998) p 103-111; and Cooper, A., Curr. Opin. Chem. Biol. (1999) 3, 557-563.

[2] = tested on: N,N′-diacetyl-Lys-D-Ala-D-Ala; experiment: ITC of binding to tri-peptide, with and without HSA
Method: Antibiotics and peptides were dissolved in aqueous buffer (20 mM Na phosphate, 150 mM NaCl, pH 7.4) containing HSA, with gentle stirring immediately before each experiment. Peptide concentrations were determined by weight. […] HSA concentrations were determined by UV absorbance (HSA, ε280=37,700; A280^1%=5.44). Spectra were recorded at room temperature in 1 cm pathlength quartz cuvettes using Shimadzu UV-160A or UV-1601 spectrophotometers, with samples diluted quantitatively with buffer if necessary to give absorbance in the 0.1-1 A range.
Isothermal titration calorimetry was performed using a Microcal VP-ITC instrument at 25° C. and 37° C. using standard operating procedures. […] Samples were degassed gently prior to loading to prevent bubble formation in the calorimeter cell.

[3] = tested on: Lys-D-Ala-D-Lactate; experiment: ITC of binding to Lys-D-Ala-D-Lactate; conditions: absence of serum proteins
From the text: as §1

[4] = tested on: human α-glycoprotein; experiment: Protein binding by isothermal titration microcalorimetry; conditions: protein […]10^−5 M assumed
Method: (§2) Integrated heat effects, after correction for heats of dilution, were analyzed by non-linear regression using a simple single-site binding model with the standard Microcal ORIGIN software package. Raw data (μcal/sec) for each injection were integrated to give the total heat effect per addition, then divided by amount of injectant to give kcal/mole of injectant. The same integration was applied for control dilution effects, and this was subtracted from the actual titration data. This provided a differential of the binding curve in which the extent of binding is proportional to the total heat liberated (or absorbed). This was then analyzed by non-linear regression methods in terms of various standard binding models.

[5] = Multimer to monomer population by electrospray ion mass spectroscopy; assay type: physicochemical; conditions: dalbavancin 0.1 mg/ml in 8:2 water:isopropanol; teicoplanin 50 and 100 μg/mL in water
Method: Experiments were performed using an Applied Biosystem API III+mass spectrometer equipped with a TurboIonSpray source, a Triple Quadrupole analyzer, operating in positive ion mode.
The mass spectra were obtained in electrospray positive mode on a Finnigan LCQ^Deca ion trap instrument previously tuned and calibrated in electrospray mode using Ultramark 1621, caffeine and MRFA (L-metionyl-arginyl-phenilalanyl-arginine).
The mass spectra were obtained in electrospray positive mode on a Finnigan LCQ^Deca ion trap instrument previous tuned and calibrated in electrospray mode using Ultramark 1621, caffeine and MRFA (L-metionyl-arginyl-phenilalanyl-arginine).

[6] = biological target: Human albumin (Homo sapiens, UniProt P02768); experiment: Protein binding by isothermal titration microcalorimetry; conditions: for Calculated percent Binding, Human albumin: albumin 6×10^−4 M assumed
Method: as §2

[7] = biological target: N,N′-diacetyl-Lys-D-Ala-D-Ala; experiment: ITC, 25 C, with 513 uM HSA
[8] = biological target: N,N′-diacetyl-Lys-D-Ala-D-Ala; experiment: ITC, 25 C, 0 uM HSA
[9] = biological target: N,N′-diacetyl-Lys-D-Ala-D-Ala; experiment: ITC, 10 C, 0 uM HSA

Human albumin, sequence (P02768 25-609): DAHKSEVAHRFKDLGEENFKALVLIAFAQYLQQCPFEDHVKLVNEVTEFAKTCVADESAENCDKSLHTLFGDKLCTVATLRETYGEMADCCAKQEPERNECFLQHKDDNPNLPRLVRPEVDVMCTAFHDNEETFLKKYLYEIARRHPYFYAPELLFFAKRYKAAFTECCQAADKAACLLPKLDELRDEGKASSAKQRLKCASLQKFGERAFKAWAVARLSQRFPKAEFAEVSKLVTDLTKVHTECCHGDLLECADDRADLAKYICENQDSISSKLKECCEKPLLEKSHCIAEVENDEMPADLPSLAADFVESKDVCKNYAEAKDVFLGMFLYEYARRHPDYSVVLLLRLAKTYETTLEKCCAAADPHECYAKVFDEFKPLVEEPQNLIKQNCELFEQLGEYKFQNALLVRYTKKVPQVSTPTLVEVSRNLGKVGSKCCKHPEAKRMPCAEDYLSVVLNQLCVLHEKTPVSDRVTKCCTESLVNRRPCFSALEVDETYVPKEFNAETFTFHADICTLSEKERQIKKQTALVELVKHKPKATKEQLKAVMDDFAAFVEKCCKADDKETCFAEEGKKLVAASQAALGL

Which “Binding to dipeptide (D-Ala-D-Ala)” value [1] does the source give for `CN[C@H](CC(C)C)C(=O)N[C@H]1C(=O)N[C@@H](CC(N)=O)C(=O)N[C@H]2C(=O)N[C@H]3C(=O)N[C@H](C(=O)N[C@H](C(=O)O)c4cc(O)cc(O)c4-c4cc3ccc4O)[C@H](O)c3ccc(c(Cl)c3)Oc3cc2cc(c3O[C@@H]2O[C@H](CO)[C@@H](O)[C@H](O)[C@H]2O[C@H]2C[C@](C)(N)[C@H](O)[C@H](C)O2)Oc2ccc(cc2Cl)[C@H]1O` [Vancomycin] here?
Its value is “no evidence of binding”.

What about the Kass ([2]; 10 °C, [HSA] 0 μM) of the same compound?
The Kass was 6.90E+05 L M^−1.

And the Kass ([2]; 25 °C, [HSA] 0 μM)?
Its Kass is 3.40E+05 L M^−1 and 3.60E+05 L M^−1.

What about the Kass ([2]; 25 °C, [HSA] 513 μM) of the same compound?
Its Kass is 2.90E+05 L M^−1.

And the “Binding to tri-peptide in the presence of HSA vs absence” value ([2]; control ITC experiments)?
Its value is “comparable to those seen in the absence of HSA”.

And the “Binding to Lys-D-Ala-D-Lactate” value [3]?
Its value is “no evidence of binding”.

Which “Calculated percent Binding, Human α-glycoprotein” value ([4]; antibiotic 1 μM) does the source give for Teicoplanin here?
The value was 9.6%.

What about the “Calculated percent Binding, Human α-glycoprotein” value ([4]; antibiotic 10 μM) of the same compound?
The value was 9.1%.

What about the “Calculated percent Binding, Human α-glycoprotein” value ([4]; antibiotic 100 μM) of the same compound?
Its value is 6.0%.

What about the “Multimers in solution (ESI-MS)” value [5] of the same compound?
Its value is “does not show multimeric complexes in solution”.

What about the “Apparent binding affinity Ka, Human albumin” value ([6]; 25° C., pH 7.4, ± SD of fit) of the same compound?
Its value is 0.96 (±0.08) ×10^5 M^−1.

And the “Calculated percent Binding, Human albumin” value ([6]; antibiotic 1 μM)?
The value was 98.3%.

And the “Calculated percent Binding, Human albumin” value ([6]; antibiotic 10 μM)?
The value was 98.3%.

What about the “Calculated percent Binding, Human albumin” value ([6]; antibiotic 100 μM) of the same compound?
Its value is 98.0%.

For vancomycin hydrochloride (peptide), which Kd [7] is on record?
Its Kd is 3450 nM.

What about the ΔH [7] of the same compound?
The ΔH was -10.1 kcal/mol.

And the ΔS [7]?
Its ΔS is -8.8 eu.

What about the Kd [8] of the same compound?
The Kd was 2940 nM and 2780 nM.

And the ΔH [8]?
Its ΔH is -10.7 kcal/mol and -12.9 kcal/mol.

And the ΔS [8]?
The ΔS was -10.6 eu and -17.8 eu.

What about the Kd [9] of the same compound?
Its Kd is 1450 nM.

And the ΔH [9]?
Its ΔH is -9.49 kcal/mol.

And the ΔS [9]?
The ΔS was -6.8 eu.
